For test [1], the target named is T1, NHE3 (Homo sapiens, UniProt P48764).
T1 construct: expressed in transfected cells
T1 sequence (P48764 26-834): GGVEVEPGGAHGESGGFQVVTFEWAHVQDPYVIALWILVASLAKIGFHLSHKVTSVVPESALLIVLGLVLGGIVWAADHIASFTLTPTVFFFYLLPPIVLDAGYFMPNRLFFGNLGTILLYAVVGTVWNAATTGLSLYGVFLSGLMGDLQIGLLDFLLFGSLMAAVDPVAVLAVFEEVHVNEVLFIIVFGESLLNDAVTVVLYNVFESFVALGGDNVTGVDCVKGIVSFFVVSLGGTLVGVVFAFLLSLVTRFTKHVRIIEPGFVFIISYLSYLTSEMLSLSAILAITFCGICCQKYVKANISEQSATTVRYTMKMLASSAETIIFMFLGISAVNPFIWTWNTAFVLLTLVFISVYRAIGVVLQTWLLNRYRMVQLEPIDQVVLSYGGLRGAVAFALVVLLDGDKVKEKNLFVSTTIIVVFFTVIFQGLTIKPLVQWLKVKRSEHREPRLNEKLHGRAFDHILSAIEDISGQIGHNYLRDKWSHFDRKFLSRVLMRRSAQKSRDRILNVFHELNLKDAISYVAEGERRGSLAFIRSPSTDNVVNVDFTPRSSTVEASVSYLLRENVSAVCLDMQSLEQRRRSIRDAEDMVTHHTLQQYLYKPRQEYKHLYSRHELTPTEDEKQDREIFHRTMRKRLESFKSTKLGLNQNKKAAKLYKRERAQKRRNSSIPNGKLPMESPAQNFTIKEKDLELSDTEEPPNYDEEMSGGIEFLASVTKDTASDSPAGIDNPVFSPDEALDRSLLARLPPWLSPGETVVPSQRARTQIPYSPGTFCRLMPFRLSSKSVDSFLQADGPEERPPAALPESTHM
T1 sequence (Q99653 2-195 partner limits assumed): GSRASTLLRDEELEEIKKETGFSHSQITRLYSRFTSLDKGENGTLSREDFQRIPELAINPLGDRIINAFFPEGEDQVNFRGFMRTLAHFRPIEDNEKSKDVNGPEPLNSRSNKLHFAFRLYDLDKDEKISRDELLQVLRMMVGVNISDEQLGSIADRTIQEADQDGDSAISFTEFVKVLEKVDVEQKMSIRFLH
As to the kind of experiment: Cell-based assay of NHE-3 activity (persistent inhibition), human. Conditions: human Persistence, 60 min incubation then washout. An outline of the steps:
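PS120 fibroblasts expressing human NHE3 with NHERF2 exposed to 0-30 μM compound for 60 min at RT, then washed out; cells acid-loaded by NH4Cl prepulse with BCECF-AM and Na+-free buffer. Na+-driven pH recovery started 10 min post-washout; initial rate of BCECF ratio change (FLIPR) taken as activity.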

In test [2] the target is T1, NHE3. As to the kind of experiment: Cell-based assay of NHE-3 activity (pre-incubation inhibition), human. Conditions: human Preincubation. An outline of the steps: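 PS120 fibroblasts stably expressing human NHE3 and NHERF2, loaded 30 min at 37 °C with 5 μM BCECF-AM in NH4Cl buffer, then acidified 10 min at room temperature in Na+-free buffer with 0–30 μM compound. Initial rate of BCECF fluorescence ratio change (FLIPR) per minute taken as Na+/H+ activity.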

A value given as a limit tells only on which side of the number the result lay.

For orientation: IC50 means the concentration that gives 50% inhibition. Low values mean greater potency, high ones weaker potency.

As to `CN(C)[C@H]1Cc2c(Cl)cc(Cl)cc2[C@@H]1Oc1ccc(S(=O)(=O)N[C@@H]2CCN(CCOCCNC(=O)NCCCCNC(=O)NCCOCCN3CC[C@@H](NS(=O)(=O)c4ccc(O[C@H]5c6cc(Cl)cc(Cl)c6C[C@@H]5N(C)C)c(F)c4)C3)C2)cc1F` [Example 112, 4-([(1S,2S)-4,6-Dichloro-2-(dimethylamino)-2,3-dihydro-1H-inden-1-yl]oxy)-N—[(R)-1-(20-[(R)-3-([4-([(1S,2S)-4,6-dichloro-2-(dimethylamino)-2,3-dihydro-1H-inden-1-yl]oxy)-3-fluorophenyl]sulfonamido)pyrrolidin-1 yl]-7,14-dioxo-3,18-dioxa-6,8,13,15-tetraazaicosyl)pyrrolidin-3-yl)-3-fluorobenzenesulfonamide; tetra(trifluoroacetate)], the “% inhibition” value at NHE3 [1] and on NHE3 [2] was “C (>70%)” each time. Also, the pIC50 result against NHE3 [1] and against NHE3 [2] (0-30 μM test compound) was “C (NHE3 pIC50 > 7)” in each case.
For the molecule `Cc1cc(S(=O)(=O)N[C@@H]2CCN(CCOCCNC(=O)NCCCCNC(=O)NCCOCCN3CC[C@@H](NS(=O)(=O)c4ccc(O[C@H]5c6cc(Cl)cc(C)c6C[C@@H]5N5CCC[C@@H](N(C)C)C5)c(C)c4)C3)C2)ccc1O[C@H]1c2cc(Cl)cc(C)c2C[C@@H]1N1CCC[C@@H](N(C)C)C1` [Example 113, 4-([(1S,2S)-6-Chloro-2-[(R)-3-(dimethylamino)piperidin-1-yl]-4-methyl-2,3-dihydro-1H-inden-1-yl]oxy)-N—[(R)-1-(20-[(R)-3-([4-([(1S,2S)-6-chloro-2-[(R)-3-(dimethylamino)piperidin-1-yl]-4-methyl-2,3-dihydro-1H-inden-1-yl]oxy)-3-methylphenyl]sulfonamido)pyrrolidin-1-yl]-7,14-dioxo-3,18-dioxa-6,8,13,15-tetraazaicosyl)pyrrolidin-3-yl]-3-methylbenzenesulfonamide; tetra(trifluoroacetate)], the “% inhibition” value at NHE3 [1] and at NHE3 [2] was “C (>70%)” throughout. Further, the pIC50 entry at NHE3 [1] and on NHE3 [2] (0-30 μM test compound) was “C (NHE3 pIC50 > 7)” in each case.
As for `Cc1cc(S(=O)(=O)N[C@H]2CCN(CCOCCNC(=O)NCCCCNC(=O)NCCOCCN3CC[C@H](NS(=O)(=O)c4ccc(O[C@H]5c6cc(Cl)cc(C)c6C[C@@H]5N5CCC[C@@H](N(C)C)C5)c(C)c4)C3)C2)ccc1O[C@H]1c2cc(Cl)cc(C)c2C[C@@H]1N1CCC[C@@H](N(C)C)C1` [Example 114, 4-([(1S,2S)-6-Chloro-2-[(R)-3-(dimethylamino)piperidin-1-yl]-4-methyl-2,3-dihydro-1H-inden-1-yl]oxy)-N—[(S)-1-(20-[(S)-3-([4-([(1S,2S)-6-chloro-2-[(R)-3-(dimethylamino)piperidin-1-yl]-4-methyl-2,3-dihydro-1H-inden-1-yl]oxy)-3-methylphenyl]sulfonamido)pyrrolidin-1-yl]-7,14-dioxo-3,18-dioxa-6,8,13,15-tetraazaicosyl)pyrrolidin-3-yl]-3-methylbenzenesulfonamide; tetra(trifluoroacetate)], the “% inhibition” value on NHE3 [1] and at NHE3 [2] was “C (>70%)” throughout. Moreover, the pIC50 entry against NHE3 [1] and against NHE3 [2] (0-30 μM test compound) was “C (NHE3 pIC50 > 7)” throughout.
Take `CN(C)[C@@H]1CCCN([C@H]2Cc3c(C#N)cc(Cl)cc3[C@@H]2Oc2ccc(S(=O)(=O)NCCOCCOCCNC(=O)NCCCCNC(=O)NCCOCCOCCNS(=O)(=O)c3ccc(O[C@H]4c5cc(Cl)cc(C#N)c5C[C@@H]4N4CCC[C@@H](N(C)C)C4)cc3)cc2)C1` [Example 121, 4-([(1S,2S)-6-Chloro-4-cyano-2-[(R)-3-(dimethylamino)piperidin-1-yl]-2,3-dihydro-1H-inden-1-yl]oxy)-N-[26-([4-([(1S,2S)-6-chloro-4-cyano-2-[(R)-3-(dimethylamino)piperidin-1-yl]-2,3-dihydro-1H-inden-1-yl]oxy)phenyl]sulfonamido)-10,17-dioxo-3,6,21,24-tetraoxa-9,11,16,18-tetraazahexacosyl]benzenesulfonamide]: the “% inhibition” value at NHE3 [1] is recorded as “A (NHE3 < 40%)”; at NHE3 [2], “B (40-70%)”. Further, the pIC50 result against NHE3 [1] and on NHE3 [2] (0-30 μM test compound) was “C (NHE3 pIC50 > 7)” throughout.
As to `N#Cc1cc(Cl)cc2c1C[C@H](N1CCNCC1)[C@H]2Oc1ccc(S(=O)(=O)NC(=O)CCCNC(=O)NCCCCNC(=O)NCCCC(=O)NS(=O)(=O)c2ccc(O[C@H]3c4cc(Cl)cc(C#N)c4C[C@@H]3N3CCNCC3)cc2)cc1` [Example 124, N^1,N^18-Bis([4-([(1S,2S)-6-chloro-4-cyano-2-(piperazin-1-yl)-2,3-dihydro-1H-inden-1-yl]oxy)phenyl]sulfonyl)-6,13-dioxo-5,7,12,14-tetraazaoctadecanediamide], the “% inhibition” value on NHE3 [1] and on NHE3 [2] was “C (>70%)” throughout. On NHE3 [1], this molecule had a half-maximal inhibitory concentration (IC50) of 100 to 1000 nM. The pIC50 result against NHE3 [2] (0-30 μM test compound) is “C (NHE3 pIC50 > 7)”.
Turning to `N#Cc1cc(Cl)cc2c1C[C@H](N1CCCNCC1)[C@H]2Oc1ccc(S(=O)(=O)N[C@@H]2CCN(CCOCCNC(=O)NCCCCNC(=O)NCCOCCN3CC[C@@H](NS(=O)(=O)c4ccc(O[C@H]5c6cc(Cl)cc(C#N)c6C[C@@H]5N5CCCNCC5)cc4)C3)C2)cc1` [Example 127, 4-([(1S,2S)-6-Chloro-4-cyano-2-(1,4-diazepan-1-yl)-2,3-dihydro-1H-inden-1-yl]oxy)-N—[(R)-1-(20-[(R)-3-([4-([(1S,2S)-6-chloro-4-cyano-2-(1,4-diazepan-1-yl)-2,3-dihydro-1H-inden-1-yl]oxy)phenyl]sulfonamido)pyrrolidin-1-yl]-7,14-dioxo-3,18-dioxa-6,8,13,15-tetraazaicosyl)pyrrolidin-3-yl]benzenesulfonamide; bis(trifluoroacetic acid)], the “% inhibition” value on NHE3 [1] was “A (NHE3 < 40%)”; at NHE3 [2] it was “C (>70%)”. Also, the IC50 against NHE3 [1] and on NHE3 [2] (0-30 μM test compound) was under 100 nM in each case.
As for `CN1CCCN([C@H]2Cc3c(C#N)cc(Cl)cc3[C@@H]2Oc2ccc(S(=O)(=O)N[C@H]3CCN(CCOCCNC(=O)NCCCCNC(=O)NCCOCCN4CC[C@H](NS(=O)(=O)c5ccc(O[C@H]6c7cc(Cl)cc(C#N)c7C[C@@H]6N6CCCN(C)CC6)cc5)C4)C3)cc2)CC1` [Example 128, 4-([(1S,2S)-6-Chloro-4-cyano-2-(4-methyl-1,4-diazepan-1-yl)-2,3-dihydro-1H-inden-1-yl]oxy)-N—[(S)-1-(20-[(S)-3-([4-([(1S,2S)-6-chloro-4-cyano-2-(4-methyl-1,4-diazepan-1-yl)-2,3-dihydro-1H-inden-1-yl]oxy)phenyl]sulfonamido)pyrrolidin-1-yl]-7,14-diaxo-3,18-dioxa-6,8,13,15-tetraazaicosyl)pyrrolidin-3-yl]benzenesulfonamide], the “% inhibition” value at NHE3 [1] and on NHE3 [2] was “A (NHE3 < 40%)” throughout. For the same molecule, the pIC50 result at NHE3 [1] is on record as “C (NHE3 pIC50 > 7)”; against NHE3 [2] (0-30 μM test compound), “A (NHE3 pIC50 < 6)”.
Consider `CN1CCCN([C@H]2Cc3c(C#N)cc(Cl)cc3[C@@H]2Oc2ccc(S(=O)(=O)N[C@@H]3CCN(CCOCCNC(=O)NCCCCNC(=O)NCCOCCN4CC[C@@H](NS(=O)(=O)c5ccc(O[C@H]6c7cc(Cl)cc(C#N)c7C[C@@H]6N6CCCN(C)CC6)cc5)C4)C3)cc2)CC1` [Example 129], for which the “% inhibition” value at NHE3 [1] and on NHE3 [2] was “A (NHE3 < 40%)” throughout. Besides, the pIC50 entry on NHE3 [1] was “C (NHE3 pIC50 > 7)”; against NHE3 [2] (0-30 μM test compound), “A (NHE3 pIC50 < 6)”.

(Values after patent US11242337B2, “Compounds useful for treating gastrointestinal tract disorders” (Ardelyx, Inc., priority 2017, dated 2022).)
